This note sets out measurements from patent US20160106689A1, “USE” (Novabiotics Limited, priority 2014, published 2016).

Converted amounts (≈) assume the structure as drawn. Counter-ions that a name gives are not always drawn. Like-named read-outs stand apart in the source and are kept apart here.

For this assay, the system named is Pseudomonas aeruginosa (PAO1). The assay is described as follows: MIC100 determination against the type strain of Pseudomonas aeruginosa (PAO1). The format is cell-based. The settings on record: for MIC: Pseudomonas aeruginosa. Here is the method: The MIC100 using cysteamine, oxidised cysteamine and cystamine against the type strain of Pseudomonas aeruginosa (PAO1) was determined. Cysteamine and ‘oxidised’ cysteamine (containing some cystamine) were consistently equivalent at either 250 μg/ml or (as shown in the summary table below) 500 μg/ml. We oxidised the cysteamine by leaving the powder exposed to the air (in a sterile environment) for 5 days—during which time it changes in appearance (turning from an off white crystalline morphology to more of a white powder). It often also accrues water as it is hygroscopic and can also react with air to produce water.

The mark [1] stands for this setting: PAO1, in CA-MHB, three replicates, repeated three times, read-out: MIC100 against PAO1 in CA-MHB.
The mark [2] stands for this setting: PAO1, in MHB, three replicates, repeated three times, read-out: MIC100 against PAO1 in MHB.

With `NCCSSCCN` [Cystamine HCl, cystamine], under “PAO1, oxidised cysteamine compared with fresh cysteamine”, the “antibacterial activity (in words)” value is “shown to be antibacterial”. Also, the MIC was 1000 µg/mL under setting [1] and 1000 µg/mL under setting [2].
Regarding `NCCS` [Cysteamine, cysteamine], the MIC by setting is: under setting [1], 500 µg/mL (≈ 6.48 mM); under setting [2], 500 µg/mL (≈ 6.48 mM); (PAO1, text statement, medium not stated, consistently either 250 or 500 across experiments, read-out: MIC100 against PAO1) 250 µg/mL (≈ 3.24 mM). Further, the “MIC100 against PAO1” value (medium not stated, consistently either 250 or 500 across experiments) was found to be 500 µg/mL (≈ 6.48 mM).
